Measurements: ChEMBL document CHEMBL1933049, “Methylenebissantin: a rare methylene-bridged bisflavonoid from Dodonaea viscosa which inhibits Plasmodium falciparum enoyl-ACP reductase” (Bioorg Med Chem Lett, 2012)

Target: T1, Enoyl-acyl-carrier protein reductase (Plasmodium falciparum, UniProt Q965D5)
T1 sequence (Q965D5 whole entry): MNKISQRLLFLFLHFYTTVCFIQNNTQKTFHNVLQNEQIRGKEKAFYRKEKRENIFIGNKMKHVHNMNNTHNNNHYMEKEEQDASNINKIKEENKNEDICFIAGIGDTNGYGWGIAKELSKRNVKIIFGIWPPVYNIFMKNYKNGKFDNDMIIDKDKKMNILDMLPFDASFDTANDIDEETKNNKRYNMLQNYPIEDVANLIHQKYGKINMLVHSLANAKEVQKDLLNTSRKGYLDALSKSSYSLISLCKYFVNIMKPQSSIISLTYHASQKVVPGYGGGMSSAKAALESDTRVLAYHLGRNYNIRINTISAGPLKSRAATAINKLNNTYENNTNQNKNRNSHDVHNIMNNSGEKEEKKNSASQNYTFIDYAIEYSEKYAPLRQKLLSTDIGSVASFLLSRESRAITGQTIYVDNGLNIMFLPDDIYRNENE
Assay: Inhibition of Plasmodium falciparum enoyl-ACP reductase assessed as oxidation of NADH to NAD+ after 10 mins by spectrophotometric analysis
Conditions: not given; call rule not given here

**Q.** Which IC50 does the source give for `C[C@H]1C[C@@H](O)[C@]2(C)C(C(=O)O)=CCC[C@H]2[C@]1(C)CCc1ccoc1` here?
**A.** Its IC50 is “Not Active”.

**Q.** Which IC50 does the source give for `COc1c(-c2ccc(O)cc2)oc2cc(O)cc(O)c2c1=O` [ISOKAEMPFERIDE] here?
**A.** Its IC50 is “Not Active”.

**Q.** With `CC(C)=CCc1cc(O[C@@H]2O[C@H](CO)[C@@H](O)[C@H](O)[C@H]2O)ccc1O` [NEBRODENSIDE A] as the compound, how does the IC50 read?
**A.** Its IC50 is “Not Active”.

**Q.** Which IC50 does the source give for `CCCCCCCCCCCCCCCCCCCCCCOC(=O)/C=C/c1ccc(O)c(O)c1` [DOCOSYL CAFFEATE] here?
**A.** Its IC50 is “Not Active”.

Same assay, conditions: read-out: IC50

**Q.** How did the IC50 turn out when `COc1cc(C(=O)O)ccc1O` [VANILLIC ACID] was run?
**A.** The IC50 was 920 µM.

**Q.** How did the IC50 turn out when `COc1ccc(-c2oc3c(Cc4c(O)c(OC)c(O)c5c(=O)c(OC)c(-c6ccc(OC)cc6)oc45)c(O)c(OC)c(O)c3c(=O)c2OC)cc1` [METHYLENEBISSANTIN] was run?
**A.** Its IC50 is 91.1 µM.
